Measured values as given in the NIST ThermoML archive (doi:10.1021/je101256z).
Values joined by “and” are separate entries in the source; they are usually repeats but may differ in a detail not shown here. Equal entries are not always repeated. Numbers after ± are expanded uncertainties.

Conditions: Liquid, Vibrating wire viscometry

Cc1cccc2ccccc12 [1-methylnaphthalene]
298.15 K
Conditions	viscosity
200 kPa	2.9 ± 0.07 mPa·s and 2.89 ± 0.07 mPa·s
1000 kPa	2.94 ± 0.07 mPa·s and 2.93 ± 0.07 mPa·s and 2.92 ± 0.07 mPa·s
10000 kPa	3.24 ± 0.07 mPa·s
39900 kPa	4.4 ± 0.1 mPa·s and 4.41 ± 0.1 mPa·s
40000 kPa	4.42 ± 0.1 mPa·s
79900 kPa	6.65 ± 0.15 mPa·s and 6.67 ± 0.15 mPa·s
80000 kPa	6.68 ± 0.15 mPa·s and 6.65 ± 0.15 mPa·s
120100 kPa	10.17 ± 0.24 mPa·s and 10.12 ± 0.23 mPa·s

CC(C)CCCCCCCOC(=O)c1ccccc1C(=O)OCCCCCCCC(C)C
Conditions	viscosity
274.07 K, 100 kPa	606.7 ± 27 mPa·s
274.35 K, 100 kPa	588.6 ± 26 mPa·s
282.95 K, 100 kPa	270.2 ± 9.1 mPa·s
283.03 K, 100 kPa	265.9 ± 8.9 mPa·s
298.15 K, 200 kPa	87.63 ± 2 mPa·s [middle of 8 runs]
298.15 K, 10000 kPa	112.08 ± 2.7 mPa·s and 112.26 ± 2.7 mPa·s
298.15 K, 20000 kPa	143.67 ± 3.8 mPa·s and 143.41 ± 3.8 mPa·s and 143.42 ± 3.8 mPa·s
298.15 K, 40000 kPa	231.39 ± 7.2 mPa·s [middle of 6 runs]
298.25 K, 100 kPa	87.67 ± 2.1 mPa·s
305.15 K, 200 kPa	57.12 ± 1.2 mPa·s [middle of 5 runs]
305.26 K, 100 kPa	57.43 ± 1.2 mPa·s
313.15 K, 200 kPa	37.1 ± 0.76 mPa·s [middle of 5 runs]
313.15 K, 10100 kPa	46.34 ± 0.96 mPa·s and 46.33 ± 0.96 mPa·s and 46.23 ± 0.96 mPa·s
313.15 K, 20000 kPa	57.28 ± 1.2 mPa·s and 57.35 ± 1.2 mPa·s and 57.32 ± 1.2 mPa·s
313.15 K, 40000 kPa	87.15 ± 1.9 mPa·s and 87.13 ± 1.9 mPa·s and 87.03 ± 1.9 mPa·s
313.15 K, 59900 kPa	130.49 ± 3.3 mPa·s and 130.29 ± 3.3 mPa·s
313.15 K, 60000 kPa	130.33 ± 3.8 mPa·s
313.15 K, 80000 kPa	194.08 ± 5.6 mPa·s and 194.41 ± 5.7 mPa·s and 195.2 ± 5.7 mPa·s
313.27 K, 100 kPa	37.41 ± 0.78 mPa·s
327.83 K, 100 kPa	19.32 ± 0.4 mPa·s
343.15 K, 200 kPa	10.99 ± 0.23 mPa·s [middle of 5 runs]
343.15 K, 10100 kPa	13.33 ± 0.29 mPa·s and 13.35 ± 0.29 mPa·s
343.15 K, 20100 kPa	15.85 ± 0.33 mPa·s and 15.86 ± 0.33 mPa·s
343.15 K, 40000 kPa	22.04 ± 0.47 mPa·s and 22.05 ± 0.47 mPa·s
343.15 K, 80100 kPa	41.22 ± 0.89 mPa·s and 41.24 ± 0.89 mPa·s
343.15 K, 137100 kPa	95.56 ± 2.2 mPa·s and 95.61 ± 2.2 mPa·s
343.24 K, 100 kPa	11.1 ± 0.23 mPa·s
343.33 K, 100 kPa	11.09 ± 0.23 mPa·s
343.53 K, 100 kPa	11.15 ± 0.23 mPa·s
368.15 K, 300 kPa	5.65 ± 0.12 mPa·s
368.21 K, 100 kPa	5.627 ± 0.12 mPa·s
368.54 K, 100 kPa	5.577 ± 0.12 mPa·s
373.15 K, 300 kPa	5.04 ± 0.1 mPa·s and 5.05 ± 0.1 mPa·s and 4.92 ± 0.1 mPa·s
373.15 K, 20100 kPa	6.876 ± 0.14 mPa·s and 6.866 ± 0.14 mPa·s
373.15 K, 40000 kPa	9.055 ± 0.19 mPa·s and 9.075 ± 0.19 mPa·s and 9.085 ± 0.19 mPa·s
373.15 K, 80100 kPa	15.22 ± 0.32 mPa·s and 15.23 ± 0.32 mPa·s
373.15 K, 137200 kPa	30.11 ± 0.65 mPa·s and 30.12 ± 0.65 mPa·s and 30.15 ± 0.65 mPa·s
